Data on two compounds can be found in patent publication US20190247302A1, “MATERIALS AND METHODS FOR TREATING OPHTHALMIC INFLAMMATION” (University of Miami, priority 2016, published 2019).

Entries after “also recorded” stand apart in the source; their conditions may differ.

Series [1] relates to TNFα production in RAW cells. Briefly: TNFα protein in LPS-treated RAW cells, intracellular antibody staining and flow cytometry. In kind it is cell-based. The note with it: 1 μg/ml LPS, BRDi 67.5-500 nM. Here is the method: Y axis=TNFα percentage of P1 gate; X axis=no LPS/no BRDi, 1 μg/ml LPS/no BRDi, BRDI 500 nM LPS, BRDI 250 nM LPS, BRDI 125 nM LPS, BRDI 67.5 Nm LPS. Triangles=JQ1; squares=IBET151; circles=EP313.
Studies then examined protein production and confirmed that TNFα was reduced by treating RAW cells in vitro with multiple bromodomain inhibitor compounds (FIG. 2).
(Flow cytometry measures light scatter and fluorescence of single cells or particles in a stream.)

The test system of a further series is LPS-induced keratitis. Put plainly: LPS-induced keratitis, local BRDi administration; clinical haze score. In kind it is in vivo. The source says:
FIG. 5 is a bar graph illustrating the effect of prior formulations on corneal clarity and corneal edema following LPS-induced keratitis. Y axis=clinical haze score; X axis=time after application of LPS+formulations (IBET151, topical (solid bar); IBET151, subconjunctival (hashed bar); solvent, subconjunctival (dotted bar)). […] FIG. 6 is a bar graph illustrating the effect of a formulation of the instant disclosure (administered via subconjunctival injection) on corneal clarity and corneal edema following LPS-induced keratitis. Y axis=clinical haze score; X axis=time after application of LPS+IBET151 formulation (solid bar); solvent alone (hashed bar); saline (dotted bar)). […] FIG. 7 is a bar graph illustrating the effect of a formulation of the instant disclosure (topical administration) on corneal clarity and corneal edema following LPS-induced keratitis. Y axis=clinical haze score; X axis=time after application of LPS+JQ1 formulation (topical, hashed bar); solvent alone (subconjunctival, dotted bar)). […] Next, to address whether local administration of bromodomain inhibitors could be used to regulate ocular inflammatory responses, an ophthalmic formulation BRDi compounds was developed. De novo development was required because the solution required to dissolve these non-polar compounds was not amenable to application to the ocular surface, as they require dilution in high concentrations of DMSO and Tween 80. […] The new formulation comprising bromodomain inhibitor IBET-151 was delivered locally in the eye by subconjunctival injection (20 μg/kg/body weight) just prior and during the induction of in vivo LPS-induced keratitis. […] To confirm that a second bromodomain inhibitor could successfully be used in the ocular compartment to reduce inflammation, JQ1 dissolved in the new ophthalmologic formulation was locally administered (1 μg/μl). The formulation was applied topically, i.e. on the corneal surface 1 drop/3× per day.

A short description of series [2]: Concentration of bromodomain inhibitor achievable in the new ophthalmic formulation. In kind it is physicochemical. The note with it: 0.5% DMSO, 0.5% Tween-80, 0.9% NaCl, 1.8% Captisol, versus previous formulations. From the text: Next, to address whether local administration of bromodomain inhibitors could be used to regulate ocular inflammatory responses, an ophthalmic formulation BRDi compounds was developed. De novo development was required because the solution required to dissolve these non-polar compounds was not amenable to application to the ocular surface, as they require dilution in high concentrations of DMSO and Tween 80.
To address this issue, a new ophthalmic formulation was developed. The bromodomain inhibitors were successfully diluted at higher concentrations when formulated with DMSO, polysorbate (Tween-80), preservative free 0.9% NaCl, and captisol (Captisol®), which is a polyanionic beta-cyclodextrin derivative providing. […] Using this new formulation, the concentrations of both DMSO and Tween-80 were able to be reduced, from 5% to 0.5% of each (which is tolerable to the eye). The final solution containing the bromodomain inhibitors was 0.5% DMSO, 0.5% Tween-80 and 1.8% Captisol.

The subject of series [3] is conjunctival epithelial cells (HCEC). Put plainly: Cytokine mRNA in LPS-exposed human conjunctival epithelial cells (HCEC). In kind it is cell-based. Particulars: 3 hours LPS, 500 nM. Here is the method:
(§1) FIGS. 8A-8C are a bar graph illustrating the effect of BRDi on a human ocular surface primary parenchymal cell line. FIG. 8A illustrates cytokine/GAPDH mRNA levels (ratio to no treatment) (Y-axis) of IL-8, IL-1β, IL-6, TNFα, and CCL2 in HCEC administered no treatment (solid bars), three hours after exposure to LPS (gray bar), and three hours after exposure to LPS and JQ1 (500 nM, hashed bar). FIG. 8B illustrates cytokine/GAPDH mRNA levels (ratio to no treatment) (Y-axis) of IL-8, IL-1β, and IL-6 in keratocytes administered no treatment (solid bars), four hours after exposure to LPS (gray bar), four hours after exposure to LPS and JQ1 (500 nM, hashed bar), and four hours after exposure to LPS and EP313 (500 nM, checked bar). FIG. 8C illustrates cytokine/GAPDH mRNA levels (ratio to no treatment) (Y-axis) of CCL2 in keratocytes administered no treatment (solid bars), four hours after exposure to LPS (gray bar), four hours after exposure to LPS and JQ1 (500 nM, hashed bar), and four hours after exposure to LPS and EP313 (500 nM, checked bar).
The ability of BRDi compounds to regulate production of dry eye-associated cytokines and chemokines produced by human ocular parenchymal cell populations also was examined. In vitro cells from the cornea and conjunctiva compartments of donated human eyes (Florida Lions Bank) were expanded. Primary cell lines were developed comprising either corneal keratocytes or conjunctival epithelial cells (HCEC) (FIG. 8A-8C). Following 3 hr. exposure to LPS, HCEC produced significant levels of IL-8, […], TNFα, CCL2, and detectable levels of IL-6 RNA (FIG. 8A). […] Corneal keratocyte cultures were also examined for RNA production and were also regulated by BRDi compounds JQ1 and EP313 (FIGS. 8B and 8C). […] These observations extend the potential of BRDi to inhibit ocular inflammation. Additionally, differences may exist between the families of BRDi compounds such that particular BRDi may be more useful under a specific set of disease conditions.

The test system of the next series is corneal keratocytes. Put plainly: Cytokine mRNA in LPS-exposed human corneal keratocytes. The note with it: 4 hours LPS, 500 nM. In kind it is cell-based. Here is the method: as §1
The ability of BRDi compounds to regulate production of dry eye-associated cytokines and chemokines produced by human ocular parenchymal cell populations also was examined. In vitro cells from the cornea and conjunctiva compartments of donated human eyes (Florida Lions Bank) were expanded. […]

Turning to `COc1cc2c(cc1-c1c(C)noc1C)ncc1[nH]c(=O)n([C@H](C)c3ccccn3)c12` [IBET151], in series [1], the “TNFα protein (TNFα percentage of P1 gate)” value is reported as “TNFα protein inhibition”. Moreover, the “clinical haze score (corneal clarity and corneal edema)” value in the series with LPS-induced keratitis (new formulation RLVP.001, subconjunctival injection, 20 μg/kg/body weight) is given as “prevents corneal opacification”; in the series with LPS-induced keratitis (new formulation RLVP.001, subconjunctival injection, 20 μg/kg/body weight, listed as IBET-151), “ameliorates the development of corneal inflammation”. Also, the “concentration of bromodomain inhibitor that can be formulated” value in series [2] is reported as “significantly higher concentrations”.
Regarding `Cc1sc2c(c1C)C(c1ccc(Cl)cc1)=N[C@@H](CC(=O)OC(C)(C)C)c1nnc(C)n1-2` [JQ1], the “TNFα protein (TNFα percentage of P1 gate)” value in series [1] is listed as “TNFα protein inhibition”. In addition, the “clinical haze score (corneal clarity and corneal edema)” value in the series on LPS-induced keratitis (new formulation RLVP.001, topical, 1 μg/μl, 1 drop/3× per day) is “prevents corneal opacification; also recorded: successfully ameliorated the inflammatory response in the cornea”. Besides, in series [3], the “CCL2 RNA level” value is recorded as “marked decreases”, the “IL-1β RNA level” value is “marginally reduced”, the “IL-6 RNA level” value is recorded as “marked decreases” and the “IL-8 RNA level” value was “marked decreases”. Also, the “TNFα RNA level” value in series [3] is “marked decreases”. Also, the “cytokine RNA production” value in the series with corneal keratocytes is on record as “regulated”. Besides, the “concentration of bromodomain inhibitor that can be formulated” value in series [2] is “significantly higher concentrations”.
